From patent US9932328B2, “3-(6-alkoxy-5-chlorobenzo[d]isoxazol-3-yl)propanoic acid useful as kynurenine monooxygenase inhibitors” (GlaxoSmithKline Intellectual Property Development Limited, priority 2014, dated 2018) come the findings set out here.

Values joined by “and” are separate entries in the source; they are usually repeats but may differ in a detail not shown here. Identical values can stand only once.

T1 sequence (O15229 whole entry): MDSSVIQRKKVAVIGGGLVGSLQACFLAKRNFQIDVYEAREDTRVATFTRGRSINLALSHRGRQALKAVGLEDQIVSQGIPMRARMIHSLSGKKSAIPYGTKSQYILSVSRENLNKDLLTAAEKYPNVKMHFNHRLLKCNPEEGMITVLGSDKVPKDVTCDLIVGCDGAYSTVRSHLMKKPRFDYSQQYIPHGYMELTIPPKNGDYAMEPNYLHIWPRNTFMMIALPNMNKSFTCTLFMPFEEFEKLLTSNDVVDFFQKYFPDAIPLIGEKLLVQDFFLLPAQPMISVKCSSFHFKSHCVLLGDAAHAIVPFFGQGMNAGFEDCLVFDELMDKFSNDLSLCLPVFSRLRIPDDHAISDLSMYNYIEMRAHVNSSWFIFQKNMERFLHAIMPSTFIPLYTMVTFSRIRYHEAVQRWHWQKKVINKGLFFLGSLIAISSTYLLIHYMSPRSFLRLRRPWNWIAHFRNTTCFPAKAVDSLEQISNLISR

The first test has as its target T1, human KMO (Homo sapiens, UniProt O15229).
T1 construct: Full length human KMO was amplified by PCR; made in house; host or cells: Spodoptera frugiperda (Sf9) cells, baculovirus; used as purified membranes
Kind of test: KMO MS Rapidfire functional assay (RapidFire high-throughput mass spectrometry, Method 1 or Method 2). The test is classed as biochemical. Particulars: in at least one of the MS Rapidfire assays (Method 1 or 2); isolated human KMO-membranes, 10 μM Kynurenine, 200 μM NADPH; values exemplary only. The text has this: KMO inhibition can be determined by MS Rapidfire assay performed on the human cloned enzyme as described herein.
L-Kynurenine (Kyn), 3-hydroxy-DL-kynurenine (3-HK), β-Nicotinamide adenine dinucleotide 2′-phosphate reduced tetrasodium salt hydrate (NADPH), 4-(2-hydroxyethyl)piperazine-1-ethanesulfonic acid (Hepes), DL-dithiothreitol (DTT), ethylenediaminetetraacetic acid (EDTA), CHAPS and trifluoroacetic acid (TFA) were purchased from Sigma-Aldrich Ltd. (Gillingham, Dorset, UK). HPLC-grade acetonitrile and formic acid were supplied by Fisher Scientific (Loughborough, UK).
Full length human KMO was amplified by PCR from pcDNA5/FRT/V5-His-TOPO/hKMO (vector supplied by the University of Edinburgh) and cloned into pGEX6P-1 (GE Healthcare) using BamH1 and Sal1 restriction sites. DNA encoding the N-terminal glutathione-S-transferase (GST) tag, followed by a Pre-Scission protease cleavage site, and the full length KMO was amplified by PCR from pGEX6P-1-KMO and cloned into pFastbac1 (Invitrogen) using Xbal and EcoR1 restriction sites.
pFastbac1 GST-KMO was transposed into the baculovirus genome using the BAC-to-BAC technology (Invitrogen) and bacmid DNA was prepared and transfected into Spodoptera frugiperda (Sf9) cells using Cellfectin II (Invitrogen).
A P1 virus stock was generated from a single clone and used to infect 3× 1.5 L cultures of Sf9 cells in 3 L Corning Fernbach flasks. […] Cells were harvested after 48 hours and disrupted by blending in 50 mM Hepes, pH 7.4, 1 mM EDTA buffer containing protease inhibitors. A low speed spin (400 g) was used to remove cell debris, followed by a high speed spin (75 000 g) to pellet the membranes. The membranes were purified in a discontinuous sucrose density gradient by re-suspending in 10% (w/v) sucrose and layering over 40% (w/v) sucrose, both in the above buffer. This was centrifuged at 150 000 g and the purified membranes were taken from the interface, collected by centrifugation at 100 000 g, resuspended in buffer and aliquoted for storage at −80° C.
11 point, 3-fold serial dilutions of test compounds were prepared in DMSO and 100 nL of these solutions were dispensed into 384-well V-base polypropylene plates (Greiner Bio-one, Stonehouse, UK) using an Echo 555 acoustic dispenser (Labcyte, Sunnyvale, Calif.). This gave a final assay concentration range between 100 μM and 1.7 nM in 10 μL final assay volume (see below). 100 nL DMSO was dispensed into columns 6 and 18 for high and low controls, respectively, with prior inactivation of the enzyme in column 18 by pre-dispense of 30 μL of 0.5% (v/v) TFA.
Conditions for the assay of human KMO using isolated KMO-membranes were 50 mM Hepes, pH 7.5, 2 mM DTT, 1 mM EDTA, 100 μM CHAPS, 200 μM NADPH, 10 μM Kynurenine and 8 μg/ml KMO-membranes in a total reaction volume of 10 μL.
Assays were performed by initially dispensing 5 μL of a 2× Enzyme solution (16 μg/ml KMO-membranes in 50 mM Hepes, pH 7.5, 2 mM DTT, 2 mM EDTA, 200 μM CHAPS) into plates containing 100 nL compounds and incubating for 10 min at ambient temperature. Reactions were initiated by addition of 5 μL of 2× Substrate solution (400 μM NADPH, 20 μM Kynurenine in 50 mM Hepes, pH 7.5, 2 mM DTT) and incubated for 2 h at room temperature before quenching the reaction with 30 μL of 0.5% (v/v) TFA. Plates were centrifuged at 2500 rpm for 10 min before analysis. All additions were made using a Multidrop Combi dispenser (Thermo Fisher Scientific).
Quenched assay plates were transferred to a high-throughput RapidFire200 integrated autosampler/solid-phase extraction (SPE) system (Agilent Technologies, Wakefield, Mass.).
Consider `Cc1ccc([C@@H](C)Oc2cc3onc(CCC(=O)O)c3cc2Cl)nn1` [Example 20, (R)-3-(5-chloro-6-(1-(6-methylpyridazin-3-yl)ethoxy)benzo[d]isoxazol-3-yl)propanoic acid], for which the “median pIC50” value is listed as 8.7.

The test is the same for the next values; noted with them: in at least one of the MS Rapidfire assays (Method 1 or 2); isolated human KMO-membranes, 10 μM Kynurenine, 200 μM NADPH; values exemplary only; read-out: median pIC50 (converted).
Consider `CC(Oc1cc2onc(CCC(=O)O)c2cc1Cl)c1cccnn1` (single isomer, unassigned) [Example 22, 3-(5-chloro-6-(1-(pyridazin-3-yl)ethoxy)benzo[d]isoxazol-3-yl)propanoic acid], for which the IC50 was not above 10 nM.

For the compound `CCC(Oc1cc2onc(CCC(=O)O)c2cc1Cl)c1ccc(C)cn1` (single isomer, unassigned) [Example 23, 3-(5-chloro-6-(1-(5-methylpyridin-2-yl)propoxy)benzo[d]isoxazol-3-yl)propanoic acid], the IC50 is not above 10 nM. Still for that read-out and setting: with `CCC(Oc1cc2onc(CCC(=O)O)c2cc1Cl)c1ccccn1` (single isomer, unassigned) [Example 25, 3-(5-chloro-6-(1-(pyridin-2-yl)propoxy)benzo[d]isoxazol-3-yl)propanoic acid] the figure was ≤ 10 nM and 3.98 nM; with `CCC(Oc1cc2onc(CCC(=O)O)c2cc1Cl)c1ccc(Cl)cn1` (single isomer, unassigned) [Example 27, 3-(5-chloro-6-(1-(5-chloropyridin-2-yl)propoxy)benzo[d]isoxazol-3-yl)propanoic acid], not above 10 nM.

On to `CCc1ccc(C(C)Oc2cc3onc(CCC(=O)O)c3cc2Cl)nc1` (single isomer, unassigned) [Example 29, 3-{5-Chloro-6-[1-(5-ethylpyridin-2-yl)ethoxy]-1,2-benzoxazol-3-yl}propanoic acid], for which the IC50 was 10 nM.

For the compound `CCc1cccc(C(C)Oc2cc3onc(CCC(=O)O)c3cc2Cl)n1` (single isomer, unassigned) [Example 31, 3-{5-Chloro-6-[1-(6-ethylpyridin-2-yl)ethoxy]-1,2-benzoxazol-3-yl}propanoic acid], the IC50 is 10 nM. Take `Cc1ncc(C(C)Oc2cc3onc(CCC(=O)O)c3cc2Cl)o1` (single isomer, unassigned) [Example 35, 3-{5-Chloro-6-[1-(2-methyl-1,3-oxazol-5-yl)ethoxy]-1,2-benzoxazol-3-yl}propanoic acid]: the IC50 is 10 nM. On to `CC(Oc1cc2onc(CCC(=O)O)c2cc1Cl)c1ncc(Cl)cn1` (single isomer, unassigned) [Example 37, 3-{5-Chloro-6-[1-(5-chloropyrimidin-2-yl)ethoxy]-1,2-benzoxazol-3-yl}propanoic acid], for which the IC50 was 10 nM. The same measure, in the same setting: with `Cc1cnc(C(C)Oc2cc3onc(CCC(=O)O)c3cc2Cl)nc1` (single isomer, unassigned) [Example 39, 3-{5-Chloro-6-[1-(5-methylpyrimidin-2-yl)ethoxy]-1,2-benzoxazol-3-yl}propanoic acid] the figure was 10 nM. Same read-out and setting: with `CCc1coc(C(C)Oc2cc3onc(CCC(=O)O)c3cc2Cl)n1` (single isomer, unassigned) [Example 41, 3-{5-Chloro-6-[1-(4-ethyl-1,3-oxazol-2-yl)ethoxy]-1,2-benzoxazol-3-yl}propanoic acid] the figure was 10 nM; with `CC[C@H](Oc1cc2onc(CCC(=O)O)c2cc1Cl)c1ncccn1` (single isomer, unassigned) [Example 43], 10 nM; with `CCC(Oc1cc2onc(CCC(=O)O)c2cc1Cl)c1cccnn1` (single isomer, unassigned) [Example 46, 3-{5-Chloro-6-[1-(pyridazin-3-yl)propoxy]-1,2-benzoxazol-3-yl}propanoic acid], 10 nM. Regarding `CCC(Oc1cc2onc(CCC(=O)O)c2cc1Cl)c1ccc(C)nn1` (single isomer, unassigned) [Example 47, 3-{5-Chloro-6-[1-(6-methylpyridazin-3-yl)propoxy]-1,2-benzoxazol-3-yl}propanoic acid], the IC50 is 10 nM. Same read-out and setting: with `CCC(Oc1cc2onc(CCC(=O)O)c2cc1Cl)c1ncc(C)cn1` (single isomer, unassigned) [Example 49, 3-{5-Chloro-6-[1-(5-methylpyrimidin-2-yl)propoxy]-1,2-benzoxazol-3-yl}propanoic acid] the figure was 10 nM; with `CCC(Oc1cc2onc(CCC(=O)O)c2cc1Cl)c1ncc(Cl)cn1` (single isomer, unassigned) [Example 51, 3-{5-Chloro-6-[1-(5-chloropyrimidin-2-yl)propoxy]-1,2-benzoxazol-3-yl}propanoic acid], 10 nM. On the same count and under the same terms, with `O=C(O)CCc1noc2cc(OCc3ccccn3)c(Cl)cc12` [Example 2, 2-amino-2-(hydroxymethyl)propane-1,3-diol 3-(5-chloro-6-(pyridin-2-ylmethoxy)benzo[d]isoxazol-3-yl)propanoate] the figure was not above 10 nM; with `O=C(O)CCc1noc2cc(OCc3ccc(Cl)cn3)c(Cl)cc12` [Example 7, 2-amino-2-(hydroxymethyl)propane-1,3-diol 3-(5-chloro-6-((5-chloropyridin-2-yl)methoxy)benzo[d]isoxazol-3-yl)propanoate], 2.51 nM. For `O=C(O)CCc1noc2cc(OCc3cccnn3)c(Cl)cc12` [Example 13, 3-(5-chloro-6-(pyridazin-3-ylmethoxy)benzo[d]isoxazol-3-yl)propanoic acid], the IC50 was not above 10 nM. As to `Cc1ccc([C@@H](C)Oc2cc3onc(CCC(=O)O)c3cc2Cl)nn1` [Example 20, (R)-3-(5-chloro-6-(1-(6-methylpyridazin-3-yl)ethoxy)benzo[d]isoxazol-3-yl)propanoic acid], the IC50 is not above 10 nM.
